Data on three substances can be found in article PMC2956696, “A novel antiangiogenic peptide derived from hepatocyte growth factor inhibits neovascularization in vitro and in vivo” (Molecular Vision, 2010).

No end group written: not given here.

In data set [1] the test system is RF/6A cells. The data set can be described thus: Cell viability with H-RN alone (MTS). Type of data set: cell-based, rhesus macaque. As to conditions: any concentration tested, vs culture medium group. Here is the method: A cell proliferation assay was performed as described previously. A colorimetric MTS (3-(4,5-dimeth-ylthiazol-2-yl)-5-(3-carboxymethoxyphenol)-2-(4-sulphophenyl)-2H-tetrazolium) assay (CellTiter 96 AQ; Promega, Madison, WI) was used according to the manufacturer’s instructions. Briefly, cells were seeded onto a 96-well plate (4.8×10^3 cells/well). After 24 h, cells were serum-starved overnight, and then treated with 100 ng/ml VEGF and various doses of H-RN or H-FT (0, 1 μM, 10 μM, 100 μM, or 1 mM) in 100 μl of serum-free medium for an additional 24 h. In positive control group, 100 μl of serum-free medium contains 100 ng/ml VEGF and 0.25 or 2.5 mg/ml bevacizumab (Avastin®, Hoffmann-La Roche Ltd., Basel, Switzerland), and the negative control group contains 100 ng/ml VEGF and a scrambled peptide at concentrations of 1 μM, 10 μM, 100 μM, or 1 mM. […] The absorbance at 490 nm was recorded using a microplate reader (Bio-Rad, Model 680, Hercules, CA). […]
RF/6A cells were exposed for 24 h to VEGF (100 ng/ml), or to VEGF combined with various concentrations of bevacizumab, H-RN, or H-FT. […] At the highest dose of H-RN tested (1 mM), the mean absorbance value was very close to that of the control group (0.735 versus 0.673), though this inhibitory effect was not as strong as that of 2.5 mg/ml bevacizumab (0.735 versus 0.615). […]

For data set [2], the system named is RF/6A cells. The experiment in a line: Endothelial cell tube formation assay on Matrigel. The data set is classed as cell-based, rhesus macaque. As to conditions: 100 ng/ml VEGF, 6 h, peptides 100 nM-1 mM, bevacizumab both concentrations. Here is the method: A tube formation assay was performed as previously described. The 96 well culture plate were coated with Matrigel™ (BD Biosciences, Bedford, MA) according to the manufacturer’s instructions. RF/6A cells (2.5×10^4 in number) were preincubated with various concentrations of bevacizumab or peptides (100 nM–1 mM) before being seeded on coated plates in a serum-free medium containing VEGF 100 ng/ml, and then incubated at 37 °C for 6 h. Tube formation was observed using an inverted phase contrast microscope (Olympus, Tokyo, Japan). Images were captured with a digital camera (Olympus). The degree of tube formation was quantified by measuring the length of tubes in three randomly chosen fields (with magnification of ×100) from each well using the Image-Pro Plus Program (version 5.1; Media Cybernetics, Inc.). Each group was tested in triplicate. Each experiment was repeated three times.

Data set [3] deals with RF/6A cells. The data set can be described thus: VEGF-driven cell migration assay (Transwell). The data set is classed as cell-based, rhesus macaque. As to conditions: 100 ng/ml VEGF, 24 h, H-FT 1 nM to 1 µM, bevacizumab both concentrations. Here is the method: A cell migration assay was performed as described previously, with modification as below. Briefly, RF/6A cells were starved overnight, trypsinized, and suspended at a final concentration of 5×10^5 cells/ml. Various concentrations of bevacizumab or peptides were preincubated with the cells for 30 min at 37 °C before seeding into the Transwell chambers (pretreated by culture medium, 10 mm diameter, 8.0 µm pore size; Corning Inc., New York, NY), the 5×10^4 cells were added to each upper chamber. VEGF (100 ng/ml) was placed into the lower chamber. The assembled cell-culture insert chamber was then incubated at 37 °C for 24 h. After removing the nonmigrating cells in the upper chambers with a cotton swab, migrated cells on the lower surface of the porous membrane were fixed, stained with Gram stain, and photographed under a light microscope (Olympus, Tokyo, Japan). Five random fields (×200) were chosen in each insert, and the cell number was quantified manually. Each experiment was repeated three times.

Data set [4] relates to RF/6A cells. The data set can be described thus: VEGF-stimulated cell proliferation assay (MTS). The following applies: 24 h. Type of data set: cell-based, rhesus macaque. Here is the method:
A cell proliferation assay was performed as described previously. A colorimetric MTS (3-(4,5-dimeth-ylthiazol-2-yl)-5-(3-carboxymethoxyphenol)-2-(4-sulphophenyl)-2H-tetrazolium) assay (CellTiter 96 AQ; Promega, Madison, WI) was used according to the manufacturer’s instructions. Briefly, cells were seeded onto a 96-well plate (4.8×10^3 cells/well). After 24 h, cells were serum-starved overnight, and then treated with 100 ng/ml VEGF and various doses of H-RN or H-FT (0, 1 μM, 10 μM, 100 μM, or 1 mM) in 100 μl of serum-free medium for an additional 24 h. In positive control group, 100 μl of serum-free medium contains 100 ng/ml VEGF and 0.25 or 2.5 mg/ml bevacizumab (Avastin®, Hoffmann-La Roche Ltd., Basel, Switzerland), and the negative control group contains 100 ng/ml VEGF and a scrambled peptide at concentrations of 1 μM, 10 μM, 100 μM, or 1 mM. After completion of the treatment, 20 μl of the 3-(4,5-dimethylthiazol-2-yl)-5-(3-carboxymethoxyphenol)-2-(4-sulphophenyl)-2H-tetrazolium (MTS) reagent were pipetted into each well and incubated for 4 h. The absorbance at 490 nm was recorded using a microplate reader (Bio-Rad, Model 680, Hercules, CA). Each group was tested at least in triplicate, and the assays were repeated a minimum of three times.

Take H-FTSNPEVRYEV-OH: the Peptide remaining after 48 h was above 90%.

Substance RNPRGEEGGPW [H-RN] had a Peptide remaining after 48 h above 90%. For the same substance, in the data set with RF/6A cells [1], the “Cell viability with peptide alone (in words)” value was “cell viability was not affected”.

Turning to bevacizumab, in the data set on RF/6A cells [2], the “Inhibition of VEGF-induced tube formation (in words)” value is listed as “strongly inhibited”. Moreover, in the data set on RF/6A cells [3], the “Inhibition of VEGF-induced cell migration (in words)” value was “effectively inhibited cell migration”. Also, the “Inhibition of VEGF-induced cell proliferation (in words)” value with RF/6A cells [4] (100 ng/ml VEGF, peptides 1 μM-1 mM, bevacizumab 2.5 mg/ml) is “strongly inhibited”. For the same substance, the “Mean absorbance value (490 nm, MTS), VEGF-induced proliferation” value with RF/6A cells [4] (2.5 mg/ml bevacizumab + 100 ng/ml VEGF, serum-free medium, control group 0.673) amounted to 0.615.
